Here are results for 23 compounds from patent publication US6586173B2, “Methods for the detection of amino acid decarboxylases” (priority 1999, dated 2003).

Values joined by “and” are separate entries in the source; they are usually repeats but may differ in a detail not shown here. Identical values can stand only once. Like-named read-outs stand apart in the source and are kept apart here. No end group written: not given here. *: point of attachment. AMC = Cc1cc(=O)oc2cc(N*)ccc12

The Km is the substrate concentration at which the rate is half of its maximum. A word on the Vmax: it is the rate approached at saturating substrate.

Test [1] concerns Phe-DC. Kind of test: Inhibitor assay with commercially prepared Phe-DC as enzyme source. The class given is biochemical.
The next test addresses T1, Tyr-DC (Enterococcus faecalis, UniProt P0DTQ4).
T1 sequence (P0DTQ4 1-620): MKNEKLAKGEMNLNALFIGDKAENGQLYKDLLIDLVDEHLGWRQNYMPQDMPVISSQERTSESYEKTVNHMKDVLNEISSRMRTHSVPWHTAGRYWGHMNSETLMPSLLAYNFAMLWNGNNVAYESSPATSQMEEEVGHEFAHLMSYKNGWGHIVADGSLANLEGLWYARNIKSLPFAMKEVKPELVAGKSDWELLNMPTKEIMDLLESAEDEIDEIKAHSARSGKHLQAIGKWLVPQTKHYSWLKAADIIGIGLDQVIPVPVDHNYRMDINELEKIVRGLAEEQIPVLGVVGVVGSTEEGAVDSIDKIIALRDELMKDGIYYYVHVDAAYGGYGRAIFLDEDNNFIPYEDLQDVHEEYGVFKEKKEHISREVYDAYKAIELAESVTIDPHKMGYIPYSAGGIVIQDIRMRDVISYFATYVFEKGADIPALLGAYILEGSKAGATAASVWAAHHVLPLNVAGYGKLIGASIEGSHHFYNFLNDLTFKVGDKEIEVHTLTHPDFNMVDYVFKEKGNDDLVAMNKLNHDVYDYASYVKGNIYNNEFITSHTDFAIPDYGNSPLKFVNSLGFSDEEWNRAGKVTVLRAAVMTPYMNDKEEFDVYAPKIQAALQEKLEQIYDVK
Kind of test: Inhibitor assay with commercially prepared Tyr-DC as enzyme source. The format is biochemical.

The next test concerns D. immitis L3/L4 ES. The class given is biochemical, Dirofilaria immitis. The settings on record: pH 7.5.
Test [2] deals with Phe-DC. Kind of test: Enzyme kinetics of Phe-DC with AMC substrates (fluorimetric assay). The format is biochemical. The settings on record: substrate 0.0016 to 0.2 mM, double-reciprocal plot. As to the method:
E. Enzyme kinetics, as measured by Michaelis constant (Km) and maximal velocity (Vmax), can be used to characterize the activity of an enzyme towards a given substrate under defined conditions. Enzymatic reactions were performed under the fluorimetric assay conditions described in Example 1 using Di-ADC and commercially prepared Phe-DC as the enzymes and H-Phe-AMC, H-Tyr-AMC and H-Trp-AMC as the substrates. One μL of purified adult Di-ADC, prepared as described in Example 2 through the gel filtration chromatography step, or 80 micro units (μU) (11.4 μg) of Phe-DC were incubated with each substrate at substrate concentrations ranging from 0.0016 to 0.2 mM. Each reaction was carried out in duplicate in PBS reaction buffer and monitored using the fluorimetric method described in Example 1. The values of apparent Km and Vm, of Di-ADC and Phe-DC for the substrates H-Phe-AMC, H-Tyr-AMC and H-Trp-AMC were calculated from a double-reciprocal plot of 1/v against 1/[substrate].

Test [3] deals with Di-ADC. Kind of test: Enzyme kinetics of Di-ADC with AMC substrates (fluorimetric assay). The format is biochemical, Dirofilaria immitis. The settings on record: substrate 0.0016 to 0.2 mM, double-reciprocal plot.
In test [4] the test system is phenylalanine decarboxylase (Phe-DC). Kind of test: Substrate specificity assay on commercially prepared Phe-DC. Conditions: as Example 1. The format is biochemical.
Test [5] has as its target T2, tyrosine decarboxylase (Tyr-DC) (Enterococcus faecalis, UniProt P0DTQ4).
T2 sequence (P0DTQ4 1-620): T1 sequence (P0DTQ4 1-620)
Briefly: Substrate specificity assay on commercially prepared Tyr-DC. The class given is biochemical. The settings on record: as Example 1.

Test [6] relates to Di-ADC. Briefly: Carbon dioxide release on decarboxylation of L-phenylalanine by Di-ADC (INFINITY CO2 kit). The format is biochemical, Dirofilaria immitis. Conditions: 5 mM L-phenylalanine, 37° C., 45 minutes.
Test [7] relates to Phe-DC. Briefly: Carbon dioxide release on decarboxylation of L-phenylalanine by Phe-DC (control reaction). The class given is biochemical. The settings on record: 375 U Phe-DC.
The test system of a further test is D. immitis L3 larvae. Kind of test: Larval culture assay, molting of L3 larvae counted by shed cuticles. The class given is cell-based, Dirofilaria immitis.
Test [8] relates to Phe-DC. Kind of test: Formation of dopamine from dopa by Phe-DC. The class given is biochemical. The settings on record: 172 μU Phe-DC, 0.5 mM L-dopa, 37° C., 30 minutes.
The test system of test [9] is Di-ADC. Kind of test: Formation of dopamine from dopa by Di-ADC. The format is biochemical, Dirofilaria immitis. Conditions: 10 μl Di-ADC, 0.5 mM L-dopa, 37° C., 30 minutes.
In test [10] the test system is Di-ADC. Briefly: Effect of inhibitors on cleavage of H-Phe-AMC by Di-ADC (D. immitis L3/L4 ES). The format is biochemical, Dirofilaria immitis.
[11] abbreviates: compared with inhibition of Di-ADC.

With `NCCc1c[nH]c2ccc(O)cc12` [5-HT, 5-hydroxytryptamine], the “inhibition of Phe-DC activity” value in the test with Phe-DC [1] (setting [11]) is given as “at levels similar to the level that each inhibited Di-ADC”. For the same compound, the “inhibition of Tyr-DC activity” value on Tyr-DC (setting [11]) is “at levels similar to the level that each inhibited Di-ADC”.

With `Cc1cc(=O)oc2cc(NC(=O)[C@@H](N)CCCN=C(N)N)ccc12` [H—Arg—AMC], the “D. immitis L3/L4 ES Activity (cleavage of substrate)” value (from here on “D. immitis L3/L4 ES Activity”) in the test with D. immitis L3/L4 ES is reported as “No”.

For the compound `Cc1cc(=O)oc2cc(NC(=O)[C@@H](N)Cc3ccccc3)ccc12` [H—Phe—AMC], in the test with Phe-DC [2], the Km came to 23.1 µM and the Vmax was determined as 0.619 pmol/mg/min. Besides, in the test on Di-ADC [3], the Km came to 32.1 µM and the Vmax came out at 0.234 pmol/mg/min. In test [4], the “cleavage of substrate by Phe-DC” value was “cleave”. Moreover, the “D. immitis L3/L4 ES Activity” value in the test with D. immitis L3/L4 ES is listed as “Yes”. Also, the “cleavage of substrate by Tyr-DC” value in [5] is reported as “cleave”.

`Cc1cc(=O)oc2cc(NC(=O)[C@@H]3CCCN3)ccc12` [H—Pro—AMC]: the “D. immitis L3/L4 ES Activity” value in the test on D. immitis L3/L4 ES is listed as “No”.

On to `N[C@@H](Cc1ccccc1)C(=O)O` [L-phenylalanine], for which the “formation of CO2” value in the test on Di-ADC [6] (5 μL Di-ADC) amounted to 0.7 mM; with Di-ADC [6] (10 μL Di-ADC), 0.38 mM; in the test on Di-ADC [6] (20 μl Di-ADC), 0.4 mM; with Phe-DC [7], 0.27 mM.

In the case of `N=C(N)c1ccc(CS(=O)(=O)F)cc1` [APMSF], in the test with D. immitis L3 larvae, the “% Inhibition of molting of L3 larvae” value was 19.7% and 24.2% and 14.1%; the “inhibition of the molting of L3 to L4 (in words)” value is recorded as “unable to completely inhibit the molting”.

On to `Cc1cc(=O)oc2cc(NC(=O)[C@@H](N)CC(C)C)ccc12` [H—Leu—AMC], for which the “D. immitis L3/L4 ES Activity” value in the test on D. immitis L3/L4 ES was “No”.

Turning to `Cc1cc(=O)oc2cc(NC(=O)[C@@H](N)Cc3ccc(O)cc3)ccc12` [H—Tyr—AMC], in the test with Phe-DC [2], the Km turned out to be 72.3 µM and the Vmax was determined as 0.339 pmol/mg/min. Besides, in the test on Di-ADC [3], the Km was 35.1 µM and the Vmax came to 0.152 pmol/mg/min. In addition, the “cleavage of substrate by Phe-DC” value in test [4] is “cleave”. In the test with D. immitis L3/L4 ES, the “D. immitis L3/L4 ES Activity” value is reported as “Yes”. In test [5], the “cleavage of substrate by Tyr-DC” value is given as “cleave”.

With `O=C(O)c1cc[c]([Hg][Cl])cc1` [CMBA, p-chloromercuribenzoic acid], the “inhibition of Phe-DC activity” value with Phe-DC [1] was “at levels similar to the level that each inhibited Di-ADC”. Also, the “inhibition of Tyr-DC activity” value against Tyr-DC was “at levels similar to the level that each inhibited Di-ADC”.

In the case of `Cc1cc(=O)oc2cc(NC(=O)[C@@H](N)Cc3c[nH]c4ccccc34)ccc12` [H—Trp—AMC], in the test on Phe-DC [2], the Km was found to be 22.9 µM and the Vmax turned out to be 0.703 pmol/mg/min. In the test with Di-ADC [3], the Km was 29.1 µM and the Vmax came to 0.140 pmol/mg/min. In test [4], the “cleavage of substrate by Phe-DC” value was “cleave”. In addition, the “D. immitis L3/L4 ES Activity” value with D. immitis L3/L4 ES is recorded as “Yes”. Also, the “cleavage of substrate by Tyr-DC” value in test [5] was “cleave”.

Consider `N[C@@H](Cc1ccc(O)c(O)c1)C(=O)O` [dopa, L-dopa], for which the dopamine formed with Phe-DC [8] was found to be 9.4 nmol; in the test with Di-ADC [9], 2.74 nmol.

Take `O=c1oc(Cl)c(Cl)c2ccccc12` [3,4-DCI, 3,4-Dichioroisocoumarin]: in the test with Di-ADC [10] (comparison between enzymes), the “inhibition of Di-ADC activity relative to Phe-DC or Tyr-DC activity” value is reported as “more strongly”. The “sensitivity of the enzyme activity (H-Phe-AMC cleavage) to inhibitor” value (“sensitivity … to inhibitor” for short) in the test on Di-ADC [10] (inhibitor concentrations of Table II, pre-incubated 30 minutes at 37° C.) is on record as “sensitive”. The “% Inhibition of molting of L3 larvae” value in the test on D. immitis L3 larvae (0.001 mM, 3 days culture) was determined as 28.6%; in the test on D. immitis L3 larvae (0.01 mM, 3 days culture), 40.9%; in the test on D. immitis L3 larvae (0.1 mM, 3 days culture) it was 100%. In the test with D. immitis L3 larvae (final concentration of 0.1 mM), the “inhibition of the molting process (in words)” value is “completely inhibited the molting process”.

For the compound `Cl.NCCc1ccc(S(=O)(=O)F)cc1` [Pefabloc], the “inhibition of Phe-DC activity” value with Phe-DC [1] is listed as “at levels similar to the level that each inhibited Di-ADC”. In the test with Di-ADC [10], the “sensitivity … to inhibitor” value is on record as “sensitive”. In the test with D. immitis L3 larvae, the “effect on molting (in words)” value is listed as “no apparent effect on molting”, the “effect on the molt (in words)” value is “inhibited the molt completely” and the “inhibition of the molting process (in words)” value is recorded as “completely inhibited the molting process”. For the same compound, on Tyr-DC, the “inhibition of Tyr-DC activity” value was “at levels similar to the level that each inhibited Di-ADC”.

Turning to `Cc1cc(=O)oc2cc(NC(=O)CN)ccc12` [H—Gly—AMC], in the test on D. immitis L3/L4 ES, the “D. immitis L3/L4 ES Activity” value is listed as “No”.

Regarding `CSCC[C@H](N)C(=O)Nc1ccc2ccccc2c1` [H—Met—NHNap], the “D. immitis L3/L4 ES Activity” value with D. immitis L3/L4 ES is given as “No”.

With Ala-Ala-Phe-{AMC}, the “D. immitis L3/L4 ES Activity” value with D. immitis L3/L4 ES was “No”.

On to `Cc1cc(=O)oc2cc(NC(=O)[C@@H](N)CCC(=O)O)ccc12` [H—Glu—AMC], for which the “D. immitis L3/L4 ES Activity” value in the test with D. immitis L3/L4 ES is “No”.

Take `Cc1cc(=O)oc2cc(NC(=O)[C@@H](N)Cc3cnc[nH]3)ccc12` [H—His—AMC]: the “D. immitis L3/L4 ES Activity” value in the test with D. immitis L3/L4 ES is on record as “No”.

In the case of `Cc1cc(=O)oc2cc(NC(=O)[C@H](C)N)ccc12` [H—Ala—AMC], the “D. immitis L3/L4 ES Activity” value in the test with D. immitis L3/L4 ES is “No”.

Turning to `Cc1cc(=O)oc2cc(NC(=O)C(N)CO)ccc12` (stereo not shown) [H—Ser—AMC], the “D. immitis L3/L4 ES Activity” value with D. immitis L3/L4 ES is listed as “No”.

For `Cc1cc(=O)oc2cc(NC(=O)[C@@H](N)CCCCN)ccc12` [H—Lys—AMC], the “D. immitis L3/L4 ES Activity” value with D. immitis L3/L4 ES is reported as “No”.

Consider `Cc1cc(=O)oc2cc(NC(=O)[C@H](Cc3ccccc3)NC(=O)CCCC(=O)O)ccc12` [Glutaryl—Phe—AMC], for which the “D. immitis L3/L4 ES Activity” value in the test with D. immitis L3/L4 ES is given as “No”.

`O=S(=O)(F)Cc1ccccc1` [PMSF, Phenylmethane-7-sulfonyl fluoride]: in the test on Di-ADC [10], the “inhibition of Di-ADC activity relative to Phe-DC or Tyr-DC activity” value is given as “more strongly” and the “sensitivity … to inhibitor” value was “sensitive”. Further, in the test on D. immitis L3 larvae, the “% Inhibition of molting of L3 larvae” value is 32.3% and 47.3% and 29.8%; the “inhibition of the molting of L3 to L4 (in words)” value is reported as “unable to completely inhibit the molting”.
